Data reported in publication PMC7435865, “Antinociceptive and Cytotoxic Activity of Opioid Peptides with Hydrazone and Hydrazide Moieties at the C-Terminus” (Molecules, 2020).
Like-named read-outs stand apart in the source and are kept apart here. Where a SMILES comes first, the peptide text is derived from it. [ ]: non-standard residue; d: D form. The star is where a group is joined. X4 = O=C(NN*)c1cc(C(F)(F)F)cc(C(F)(F)F)c1; X3 = FC(F)(F)c1cc(C=NN*)cc(C(F)(F)F)c1

Legend:
[1] = system: MeW155 human melanoma cells; test: melanoma cell number in culture after incubation with compound; format: cell-based; conditions: 50 µM, 96 h incubation
Method: The determination was performed by counting the cells of the MeW155 cell line after incubating them with 50 µM of the tested compounds.
The cells were plated in 24-well plates (5000 cells per well) and incubated for 24 h in Eagle’s medium containing 10% fetal bovine serum and 1% solution of penicillin and streptomycin. […] Control cells were treated with 1% DMSO only. After 96 h of incubation, the cell suspension was first lysed in lysis buffer (ReagentA, ChemoMetec A/S) and then stabilized in stabilization buffer (ReagentB, ChemoMetec A/S). The number of […] was quantified in a propidium iodide cassette with the use of a NucleoCounter® NC-100™ (ChemoMetec A/S) cell counter. The tests were performed in triplicate. The results were normalized so that the values obtained for the control were 100%.

µ opioid receptor (MOR) = molecular target: T1, µ opioid receptor (MOR) (Rattus norvegicus, UniProt P33535); test: competitive radioligand binding, [3H]DAMGO displacement in rat brain homogenate
T1 construct: from tissue; host or cells: rat brain (membrane fractions of homogenate)
T1 sequence (P33535 whole entry): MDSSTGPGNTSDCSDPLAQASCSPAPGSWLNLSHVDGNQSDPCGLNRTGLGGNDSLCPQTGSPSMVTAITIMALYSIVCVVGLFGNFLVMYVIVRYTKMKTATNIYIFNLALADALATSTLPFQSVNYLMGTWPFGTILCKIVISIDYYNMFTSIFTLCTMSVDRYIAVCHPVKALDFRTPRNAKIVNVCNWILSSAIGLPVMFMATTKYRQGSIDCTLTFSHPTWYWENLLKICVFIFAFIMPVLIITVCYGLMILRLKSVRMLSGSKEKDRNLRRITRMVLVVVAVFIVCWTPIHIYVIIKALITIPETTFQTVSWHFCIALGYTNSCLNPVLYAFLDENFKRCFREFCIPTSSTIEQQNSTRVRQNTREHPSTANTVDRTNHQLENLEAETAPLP
Method: (§1) The synthesized compounds were assayed for binding affinity to the μ- and δ-opioid (MOR and DOR, respectively), as well as to the neurokinin-1 receptors (NK1R). The determinations were performed in rat brain homogenates by competitive displacement of selective radioligands. The results are shown in Table 2 as the half-maximal inhibitory concentration (IC50) with the standard error of the mean (SEM).
(§2) The binding affinity of compounds 1b–6a for MOR, DOR, and NK1R was determined in competitive radioligand binding assays according to the method previously described. The specific radioligands were [^3H]DAMGO (DAMGO, [Tyr^1-3,5-^3H])), [^3H][Ile^5,6]DELT II ([Ile^5,6]Deltorphin II, [Tyr^l-3,5-^3H]) and [^3H]Substance P (Substance P, [Leu-3,4,5-^3H]), for experiments with MOR, DOR, and NK1R, respectively. The first two were obtained from Isotope Laboratory, Biological Research Centre, Institute of Biochemistry (Szeged, Hungary), whereas the latter was purchased from Perkin Elmer (Perkin Elmer Inc., Krakow, Poland). Membrane fractions of rat brain homogenate were incubated at 25 °C for 60 min in the presence of radioligands (0.5 nM) specific for each receptor and increasing concentrations of the tested compounds. To measure non-specific binding, 10 μM naloxone was used as the competitor for opioid receptors and 10 μM cold Substance P was used for NK1R. The reactions were carried out in assay buffer containing Tris-HCl (pH 7.4) with an addition of bovine serum albumin (BSA) and protease inhibitors (bacitracin, bestatin, captopril). After the incubation, the binding reactions were terminated by rapid filtration with M-24 Cell Harvester (Brandel/USA) through GF/B Whatman glass fiber strips (presoaked with 0.5% PEI in order to minimize non-specific binding). Radioactivity retained on the filters was measured in MicroBeta LS on a Trilux scintillation counter (PerkinElmer, Santa Clara, CA, USA). The experiments were repeated at least two times in duplicate. The IC50 value for each compound was determined using GraphPad Prism.

δ opioid receptor (DOR) = molecular target: T2, δ opioid receptor (DOR) (Rattus norvegicus, UniProt P33533); test: competitive radioligand binding, [3H][Ile5,6]Deltorphin II displacement in rat brain homogenate
T2 construct: from tissue; host or cells: rat brain (membrane fractions of homogenate)
T2 sequence (P33533 whole entry): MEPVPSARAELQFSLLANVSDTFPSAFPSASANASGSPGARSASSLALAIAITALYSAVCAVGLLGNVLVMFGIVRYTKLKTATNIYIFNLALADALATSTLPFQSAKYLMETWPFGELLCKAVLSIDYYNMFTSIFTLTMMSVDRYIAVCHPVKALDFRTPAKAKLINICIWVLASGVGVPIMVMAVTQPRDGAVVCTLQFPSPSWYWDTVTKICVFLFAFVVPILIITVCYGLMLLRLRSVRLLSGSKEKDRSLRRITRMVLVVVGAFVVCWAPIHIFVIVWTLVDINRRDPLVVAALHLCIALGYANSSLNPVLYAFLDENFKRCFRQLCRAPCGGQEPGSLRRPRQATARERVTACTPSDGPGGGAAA
Method: as §1, §2

[2] = molecular target: T3, neurokinin-1 receptor (NK1R) (Rattus norvegicus, UniProt P14600); test: competitive radioligand binding, [3H]Substance P displacement in rat brain homogenate
T3 construct: from tissue; host or cells: rat brain (membrane fractions of homogenate)
T3 sequence (P14600 whole entry): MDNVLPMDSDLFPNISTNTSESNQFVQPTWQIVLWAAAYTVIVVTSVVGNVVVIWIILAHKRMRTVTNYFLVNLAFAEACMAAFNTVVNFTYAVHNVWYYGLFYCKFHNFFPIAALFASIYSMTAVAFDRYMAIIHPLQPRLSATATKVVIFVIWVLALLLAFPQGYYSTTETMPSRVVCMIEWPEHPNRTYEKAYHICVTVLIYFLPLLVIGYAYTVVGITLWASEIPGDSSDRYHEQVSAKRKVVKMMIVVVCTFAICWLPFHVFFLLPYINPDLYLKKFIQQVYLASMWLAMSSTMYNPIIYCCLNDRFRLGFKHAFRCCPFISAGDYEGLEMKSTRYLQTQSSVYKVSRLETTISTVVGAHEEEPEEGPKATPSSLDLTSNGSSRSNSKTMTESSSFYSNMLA
Method: as §1, §2

SMILES	effect on number of melanoma cells (in words) [1]	number of MeW155 cells, % of the control value [1]	IC50 (µ opioid receptor (MOR)) [nM]	MOR IC50 ratio 2a and 1a (µ opioid receptor (MOR); ratio of IC50 of hydrazones 2a and 1a)	IC50 (δ opioid receptor (DOR)) [nM]	IC50 [2] [nM]	DOR binding (in words) (δ opioid receptor (DOR); rat brain homogenate)	IC50 (µ opioid receptor (MOR); rat brain homogenate, [3H]DAMGO 0.5 nM, read-out: MOR IC50 ± SEM) [nM]	IC50 (δ opioid receptor (DOR); rat brain homogenate, [3H][Ile5,6]DELT II 0.5 nM, read-out: DOR IC50 ± SEM) [nM]	IC50 ([2]; rat brain homogenate, [3H]Substance P 0.5 nM, read-out: NK1R IC50 ± SEM) [nM]
C[C@@H](NC(=O)[C@@H](N)Cc1ccc(O)cc1)C(=O)NCC(=O)N[C@@H](Cc1c[nH]c2ccccc12)C(=O)NN=Cc1cc(C(F)(F)F)cc(C(F)(F)F)c1 [2a, H-Tyr-D-Ala-Gly-Trp-NH-N=CH-3,5-(CF3)2Ph] (H-Y[dA]GW-X3)	significantly decrease the number of melanoma cells	20 ± 4 % of the control	112 ± 16.9	about 10	914 ± 43.5	> 1000	–	–	–	–
C[C@@H](NC(=O)[C@@H](N)Cc1ccc(O)cc1)C(=O)NCC(=O)N[C@@H](Cc1c[nH]c2ccccc12)C(=O)NNC(=O)c1cc(C(F)(F)F)cc(C(F)(F)F)c1 [2b, H-Tyr-D-Ala-Gly-Trp-NH-NH-C(=O)-3,5-(CF3)2Ph] (H-Y[dA]GW-X4)	no effect	–	93.5 ± 32.8	–	467 ± 36.9	> 1000	–	–	–	–
C[C@@H](NC(=O)[C@@H](N)Cc1ccc(O)cc1)C(=O)N[C@@H](Cc1ccccc1)C(=O)N[C@@H](Cc1ccccc1)C(=O)NN=Cc1cc(C(F)(F)F)cc(C(F)(F)F)c1 [3a, H-Tyr-D-Ala-Phe-Phe-NH-N=CH-3,5-(CF3)2Ph] (H-Y[dA]FF-X3)	significantly decrease the number of melanoma cells	~ 2 % of the control	90.4 ± 9.91	–	> 1000	723 ± 58.2	do not exhibit any appreciable DOR binding	–	–	–
C[C@@H](NC(=O)[C@@H](N)Cc1ccc(O)cc1)C(=O)N[C@@H](Cc1ccccc1)C(=O)N[C@@H](Cc1ccccc1)C(=O)NNC(=O)c1cc(C(F)(F)F)cc(C(F)(F)F)c1 [3b, H-Tyr-D-Ala-Phe-Phe-NH-NH-C(=O)-3,5-(CF3)2Ph] (H-Y[dA]FF-X4)	no effect	–	391 ± 57.9	–	> 1000	> 1000	do not exhibit any appreciable DOR binding	–	–	–
C[C@@H](NC(=O)[C@@H](N)Cc1ccc(O)cc1)C(=O)N[C@@H](Cc1c[nH]c2ccccc12)C(=O)NN=Cc1cc(C(F)(F)F)cc(C(F)(F)F)c1 [4a, H-Tyr-D-Ala-Trp-NH-N=CH-3,5-(CF3)2Ph]	significantly decrease the number of melanoma cells	65 ± 10 % of the control	118 ± 40.2	–	621 ± 65.2	> 1000	–	–	–	–
C[C@@H](NC(=O)[C@@H](N)Cc1ccc(O)cc1)C(=O)N[C@@H](Cc1c[nH]c2ccccc12)C(=O)NNC(=O)c1cc(C(F)(F)F)cc(C(F)(F)F)c1 [4b, H-Tyr-D-Ala-Trp-NH-NH-C(=O)-3,5-(CF3)2Ph]	no effect	–	–	–	–	–	–	> 1000	> 1000	> 1000
N[C@@H](Cc1ccc(O)cc1)C(=O)N1CCC[C@H]1C(=O)N[C@@H](Cc1ccccc1)C(=O)N[C@@H](Cc1ccccc1)C(=O)NN=Cc1cc(C(F)(F)F)cc(C(F)(F)F)c1 [5a, H-Tyr-Pro-Phe-Phe-NH-N=CH-3,5-(CF3)2Ph]	significantly decrease the number of melanoma cells	~ 2 % of the control	28.5 ± 9.41	–	> 1000	> 1000	do not exhibit any appreciable DOR binding	–	–	–
N[C@@H](Cc1ccc(O)cc1)C(=O)N1CCC[C@H]1C(=O)N[C@@H](Cc1ccccc1)C(=O)NN=Cc1cc(C(F)(F)F)cc(C(F)(F)F)c1 [6a, H-Tyr-Pro-Phe-NH-N=CH-3,5-(CF3)2Ph]	significantly decrease the number of melanoma cells	53 ± 3 % of the control	113 ± 7	–	> 1000	> 1000	do not exhibit any appreciable DOR binding	–	–	–
C[C@@H](O[C@H]1OCCN(Cc2n[nH]c(=O)[nH]2)[C@H]1c1ccc(F)cc1)c1cc(C(F)(F)F)cc(C(F)(F)F)c1 [aprepitant, reference compound]	–	78 ± 4 % of the control	–	–	–	–	–	–	–	–
